# pIC50, pKi: −log10 of the molar value.
# Key:
# [1] = molecular target: Thymidine kinase (Human herpesvirus 1); test: Inhibition of HSV-1 Thymidine kinase
# [2] = molecular target: Thymidine kinase (Human herpesvirus 1); test: Binding affinity against HSV-1 Thymidine kinase
SMILES,pIC50 [1],pKi [2]
"CCCO[C@H]1O[C@@H](n2cc(C)c(=O)[nH]c2=O)C[C@@H]1O [1-((2R,4S,5S)-4-Hydroxy-5-propoxy-tetrahydro-furan-2-yl)-5-methyl-1H-pyrimidine-2,4-dione]",< 4.30,
"Cc1cn([C@H]2C[C@@H](O)[C@H](OCCCc3ccccc3)O2)c(=O)[nH]c1=O [1-[(2R,4R,5R)-4-Hydroxy-5-(3-phenyl-propoxy)-tetrahydro-furan-2-yl]-5-methyl-1H-pyrimidine-2,4-dione]",< 4.30,
"Cc1cn([C@H]2C[C@H](O)[C@@H](OC(C)(C)C)O2)c(=O)[nH]c1=O [1-((2R,4S,5S)-5-tert-Butoxy-4-hydroxy-tetrahydro-furan-2-yl)-5-methyl-1H-pyrimidine-2,4-dione]",< 4.30,
"CCO[C@@H]1O[C@@H](n2cc(C)c(=O)[nH]c2=O)C[C@H]1O [1-((2R,4R,5R)-5-Ethoxy-4-hydroxy-tetrahydro-furan-2-yl)-5-methyl-1H-pyrimidine-2,4-dione]",< 4.30,
"C#C[C@H]1O[C@@H](n2cc(C)c(=O)[nH]c2=O)C[C@@H]1O [1-((2R,4S,5R)-5-Ethynyl-4-hydroxy-tetrahydro-furan-2-yl)-5-methyl-1H-pyrimidine-2,4-dione]",5.52,5.70
"CCCO[C@@H]1O[C@@H](n2cc(C)c(=O)[nH]c2=O)C[C@H]1O [1-((2R,4R,5R)-4-Hydroxy-5-propoxy-tetrahydro-furan-2-yl)-5-methyl-1H-pyrimidine-2,4-dione]",< 4.30,
"Cc1cn([C@H]2C[C@@H](O)[C@H](OC(C)(C)C)O2)c(=O)[nH]c1=O [1-((2R,4R,5R)-5-tert-Butoxy-4-hydroxy-tetrahydro-furan-2-yl)-5-methyl-1H-pyrimidine-2,4-dione]",< 4.30,
"CCO[C@H]1O[C@@H](n2cc(C)c(=O)[nH]c2=O)C[C@@H]1O [1-((2R,4S,5S)-5-Ethoxy-4-hydroxy-tetrahydro-furan-2-yl)-5-methyl-1H-pyrimidine-2,4-dione]",4.30,
"Cc1cn([C@H]2C[C@H](O)[C@@H](OCCCc3ccccc3)O2)c(=O)[nH]c1=O [1-[(2R,4S,5S)-4-Hydroxy-5-(3-phenyl-propoxy)-tetrahydro-furan-2-yl]-5-methyl-1H-pyrimidine-2,4-dione]",5.00,5.37
